Experimental data from the supplement of paper PMC10307832.

Assays:
Experiment in all cases: relative viability (nuclei count vs DMSO), 5 days (fraction); higher = more cells survive
SGI-1776 + Lapatinib = compound: CN1CCC(CNc2ccc3ncc(-c4cccc(OC(F)(F)F)c4)n3n2)CC1 [SGI-1776] + CS(=O)(=O)CCNCc1ccc(-c2ccc3ncnc(Nc4ccc(OCc5cccc(F)c5)c(Cl)c4)c3c2)o1 [Lapatinib] (partner 2 µM)
Procedure, shortened: (§1)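 Lung cancer cell lines, seeded in 1536-well plates, were treated the following day by pin tool with a single drug or with five library-drug doses (not always all listed) in √10 steps on top of a fixed anchor-drug dose. Cells were fixed and nuclei stained in one step after 5 days, and nuclei were counted. Relative viability is the nuclei count for treated wells divided by that for vehicle wells, reported as medians of duplicate plates.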

SGI-1776 + Olaparib = compound: CN1CCC(CNc2ccc3ncc(-c4cccc(OC(F)(F)F)c4)n3n2)CC1 [SGI-1776] + O=C(c1cc(Cc2n[nH]c(=O)c3ccccc23)ccc1F)N1CCN(C(=O)C2CC2)CC1 [Olaparib] (partner 8 µM)
Procedure, shortened: as §1

[1] = compound: C1COCCN1C2=NC(=NC3=C2OC4=C3C=CC=N4)C5=CC(=CC=C5)NC(=O)C6=CN=C(C=C6)N + CC(=O)c1c(C)c2cnc(Nc3ccc(N4CCNCC4)cn3)nc2n(C2CCCC2)c1=O [Palbociclib] (partner 0.5 µM)
Procedure, shortened: as §1

[2] = compound: C1COCCN1C2=NC(=NC3=C2OC4=C3C=CC=N4)C5=CC(=CC=C5)NC(=O)C6=CN=C(C=C6)N + CS(=O)(=O)N1CCN(Cc2cc3nc(-c4cccc5[nH]ncc45)nc(N4CCOCC4)c3s2)CC1 [Pictilisib] (partner 1 µM)
Procedure, shortened: as §1

Row | Cell Line | relative viability (SGI-1776 + Lapatinib; first compound 0.08 µM) | relative viability (SGI-1776 + Lapatinib; first compound 0.8 µM) | relative viability (SGI-1776 + Lapatinib; first compound 2.53 µM) | relative viability (SGI-1776 + Lapatinib; first compound 8 µM) | relative viability (SGI-1776 + Olaparib; first compound 0.08 µM) | relative viability (SGI-1776 + Olaparib; first compound 0.8 µM) | relative viability (SGI-1776 + Olaparib; first compound 2.53 µM) | relative viability (SGI-1776 + Olaparib; first compound 8 µM) | relative viability ([1]; first compound 0.02 µM) | relative viability ([1]; first compound 0.06325 µM) | relative viability ([1]; first compound 0.2 µM) | relative viability ([1]; first compound 0.6325 µM) | relative viability ([1]; first compound 2 µM) | relative viability ([2]; first compound 0.02 µM) | relative viability ([2]; first compound 0.06325 µM) | relative viability ([2]; first compound 0.2 µM) | relative viability ([2]; first compound 0.6325 µM) | relative viability ([2]; first compound 2 µM)
1 | NCI-H1944 | 0.81 | 0.727 | 0.915 | 0.601 | 0.411 | 0.406 | 0.422 | 0.354 | 0.354 | 0.381 | 0.336 | 0.304 | 0.253 | 0.358 | 0.365 | 0.356 | 0.37 | 0.316
2 | NCI-H2085 | 0.838 | 0.847 | 0.748 | 0.687 | 0.758 | 0.797 | 0.926 | 0.794 | 0.405 | 0.502 | 0.455 | 0.445 | 0.438 | 0.441 | 0.474 | 0.464 | 0.446 | 0.421
3 | EBC-1 | 0.207 | 0.214 | 0.182 | 0.138 | 0.74 | 0.732 | 0.687 | 0.573 |  |  |  |  |  | 0.409 | 0.432 | 0.307 | 0.295 | 0.293
4 | NCI-H1792 | 0.908 | 0.988 | 0.867 | 0.756 | 0.623 | 0.533 | 0.429 | 0.453 | 0.661 | 0.74 | 0.605 | 0.463 | 0.384 | 0.26 | 0.27 | 0.258 | 0.17 | 0.288
5 | NCI-H596 | 1.08 | 1.06 | 0.906 | 0.825 | 0.662 | 1 | 0.82 | 0.696 |  |  |  |  |  | 0.356 | 0.386 | 0.374 | 0.315 | 0.407
6 | NCI-H1648 |  |  |  |  | 0.648 | 0.763 | 0.761 | 1.21 | 0.252 | 0.252 | 0.255 | 0.212 | 0.222 |  |  |  |  | 
7 | A549 | 0.965 | 0.993 | 0.958 | 0.652 | 0.39 | 0.395 | 0.389 | 0.312 |  |  |  |  |  | 0.628 | 0.577 | 0.397 | 0.391 | 0.24
8 | NCI-H1299 | 1.02 | 0.991 | 0.99 | 0.95 | 1.01 | 0.962 | 1.05 | 0.897 |  |  |  |  |  | 0.866 | 0.943 | 0.808 | 0.791 | 0.442
9 | NCI-H522 |  |  |  |  | 0.612 | 0.52 | 0.623 | 0.551 | 0.798 | 0.984 | 0.884 | 0.743 | 0.838 |  |  |  |  | 
10 | Calu-6 | 1.12 | 1.11 | 1.01 | 0.771 | 0.61 | 0.559 | 0.642 | 0.474 |  |  |  |  |  | 1.03 | 0.932 | 0.87 | 0.888 | 0.472
11 | ChaGo-K-1 |  |  |  |  | 0.393 | 0.487 | 0.405 | 0.45 | 0.994 | 0.983 | 0.968 | 0.835 | 0.502 | 0.789 | 0.61 | 0.547 | 0.633 | 0.624
